Marks after values point to notes of the source that are not given here.
Assays:
[1] = Plasma potassium levels in sheep of the MCC study; assay type: in vivo
Method: In these studies, adult sheep were restrained and nasally intubated with an endotracheal tube. Aerosolized test articles were administered over 10-15 minutes to sheep. Radiolabeled ^99mTc-sulfur colloid (TSC, 3.1 mg/mL; containing approximately 20 mCi) was then administered at a specified time four or eight hours after test article. The radiolabeled aerosol was administered through the endotracheal tube for about 5 minutes. The sheep were then extubated, and total radioactive counts in the lung were measured every 5 minutes for a 1-hour observation period. The rate of radiolabel clearance from the lung is representative of the MCC rate in the animal. The advantage of this system is that it closely simulates the human lung environment. The model also allows for the collection of simultaneous PK/PD information through plasma and urine sampling over the test period. There are also several techniques to measure the drug concentrations on the airway surface during the MCC measurements. These include the collection of exhaled breath condensates or a filter paper method to obtain ASL via bronchoscopy.
The compound of Comparative Example 1 can be seen on page 15 of US 2005/0080093 and as Compound 2 on page 90 of WO 2008/031048, and as Compound 2 on pages 42-43 of WO 2008/031028. […] In order to evaluate this potential, it is beneficial to have MCC activity in vivo and not cause elevation of plasma potassium at the useful dose. One model to assess this is the sheep MCC model described below.

[2] = system: Sheep MCC; assay: Mucociliary clearance (MCC) studies in sheep; assay type: in vivo
How it was run: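 MCC read-out: gamma-camera counts over right lung at 5-min intervals for one hour, expressed as 30-min slope, 1-h AUC or maximal clearance. Radiolabelled TSC inhaled 4 or 8 h after nebulized test agent (4 mL, optionally followed by HS) in intubated adult sheep.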

[3] = sheep, aerosol, 0.24 nmol/kg (3 μM), MCC at 4 h post-dose
[4] = sheep, aerosol, 0.24 nmol/kg (3 μM), MCC at 8 h post-dose

N=C(NCCCCc1ccc(C[C@H](N)C(=O)Nc2ccc(CCCN(C[C@H](O)[C@@H](O)[C@H](O)[C@H](O)CO)C[C@H](O)[C@@H](O)[C@H](O)[C@H](O)CO)cc2)c2ccccc12)NC(=O)c1nc(Cl)c(N)nc1N [Compound 33, 3,5-diamino-N—(N-(4-(4-((S)-2-amino-3-(4-(3-(bis((2S,3R,4R,5R)-2,3,4,5,6-pentahydroxyhexyl)amino)propyl)phenylamino)-3-oxopropyl)naphthalen-1-yl)butyl)carbamimidoyl)-6-chloropyrazine-2-carboxamide]
effect on plasma potassium ([1]; sheep of the MCC study, at efficacious dose): free of potassium elevations | Therapeutic Index, times greater renal safety than Comparative Example 1 ([1]; sheep, versus Comparative Example 1): more than 1,000 | benefit to risk ratio ([2]; sheep MCC model): greater than 1000 | effect on MCC compared to vehicle ([2]; sheep, 0.24 nmol/kg (3 μM), 4 h post-dose): enhanced MCC compared to vehicle control | Initial Slope (4.0-4.5 h) ([2]; sheep, 0.240 nmol/kg (30 μM), MCC at 4 h post-dose): 37.5* (4) | AUC (% CI × h) ([2]; sheep, 0.240 nmol/kg, MCC at 4 h post-dose): 17.4* (4) % CI × h | effect of hypertonic saline (HS) on the MCC effect ([2]; sheep, 7% HS dosed immediately following 0.24 nmol/kg, MCC eight hours after combined dosing): HS increased the effect of Compound 33 on MCC | duration of action on MCC vs. vehicle ([2]; sheep, 8 hours post dose): enhanced duration action of MCC vs. vehicle | AUC (% Cl-h) [2, 3]: 17.4* (4) % Cl-h | Initial Slope (4.0-4.5 h) [2, 3]: 37.5* (4) | AUC (% Cl-h) [2, 4]: 11.7* (4) % Cl-h | Initial Slope (8.0-8.5 h) [2, 4]: 25.8* (4) | MCC Highest Submaximal Dose ([2]; sheep, solution concentration given beside the dose): <0.24 nmol/kg (3 μM) | Therapeutic Ratio (Benefit/Risk) ([2]; sheep, top dose without plasma potassium elevation vs MCC highest submaximal dose): >100

From patent US9593084B2 (Parion Sciences, Inc., priority 2012, dated 2017)
